These results are taken from publication PMC8745486, “Removal of Persistent Sulfamethoxazole and Carbamazepine from Water by Horseradish Peroxidase Encapsulated into Poly(Vinyl Chloride) Electrospun Fibers” (International Journal of Molecular Sciences, 2021).

Counter-ions that a name gives are not always drawn.

The subject of the assay is T1, horseradish peroxidase (HRP).
T1 construct: gene PRXC1A
The following applies: read-out: Free HRP; free enzyme; pH 7, 25 °C; 0.1 to 5 mM ABTS; H2O2 not stated for the kinetic assay.

As for `CCn1c(=NN=c2sc3cc(S(=O)(=O)O)ccc3n2CC)sc2cc(S(=O)(=O)O)ccc21` [ABTS, 2,2′-azino-bis(3-ehylbenzothiazoline-6-sulfonic acid) diammonium salt], the Km came out at 1540 ± 130 µM.
